Reference: patent US4599346A, “Propan-2-ol derivatives, a process for their production and medicaments containing these compounds” (Ludwig Heumann & Co., GmbH, priority 1983, dated 1986)

Legend:
[1] = background statement; result in words; cited from earlier work
[2] = biological target: T1, histamine-H2 -receptors (Cavia porcellus, UniProt P47747); assay: H2-antagonistic activity: pA2 values in vitro on the isolated atrium of guinea pigs
T1 construct: in vitro on the isolated atrium of guinea pigs; from tissue; host or cells: isolated atrium of guinea pigs
T1 sequence (P47747 whole entry): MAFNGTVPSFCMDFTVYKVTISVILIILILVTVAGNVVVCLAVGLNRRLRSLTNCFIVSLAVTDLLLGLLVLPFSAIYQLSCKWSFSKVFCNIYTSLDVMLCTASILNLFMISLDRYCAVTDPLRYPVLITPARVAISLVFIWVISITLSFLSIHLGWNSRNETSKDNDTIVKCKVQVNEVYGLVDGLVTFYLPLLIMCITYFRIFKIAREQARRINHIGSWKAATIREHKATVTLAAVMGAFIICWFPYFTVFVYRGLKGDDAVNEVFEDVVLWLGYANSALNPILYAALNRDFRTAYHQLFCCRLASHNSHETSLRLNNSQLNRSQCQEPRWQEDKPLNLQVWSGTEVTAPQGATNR
Text: J. Pharmacol. Chemother.", 27, 427 (1966) and Black et al., "Nature", 236, 385 (1971)].
A recognized method of measuring H2 -antagonistic activity is based on determination of the pA2 -values in vitro on the isolated atrium of guinea pigs

Row | SMILES | half life [1] | Kb [2]
1 | CN/C(=N/CCSCc1nc[nH]c1C)NC#N [Cimetidine] | relatively short half life | 
2 | Nc1n[s+]([O-])nc1NCC(O)COc1cccc(CN2CCCCC2)c1 (stereo not drawn) [Example 1, 4-amino-3-[2-hydroxy-3-[3-(1-piperidinylmethyl)-phenoxy]propyl]-amino-1,2,5-thiadiazole-1-oxide] |  | 49 nM
3 | Nc1c(NCC(O)COc2cccc(CN3CCCCC3)c2)c(=O)c1=O (stereo not drawn) [Example 2, 2-amino-1-[2-hydroxy-3-[3-(1-piperidinylmethyl)-phenoxy]propyl]-aminocyclobut-1-ene-3,4-dione] |  | 72.4 nM
